# Measured values as given in US10927170B2, “Anti-claudin 1 monoclonal antibodies for the prevention and treatment of hepatocellular carcinoma” (INSTITUT HOSPITALIER UNIVERSITAIRE DE STRASBOURG, priority 2015, dated 2021).
# Tests used:
# [1] = tested on: HCV Jc1-infected Huh7.5.1^dif cells; test: 186-gene HCC risk signature (nCounter, GSEA, nearest template prediction) in persistently HCV Jc1-infected Huh7.5.1^dif cells; format: cell-based, human; conditions: for Reversal of HCC high-risk genes as shown by GSEA (FIG. 2A): DAA 1 nM DCV+1 μM SOF, interferon alpha-2a 10 IU/ml, erlotinib 0.1 μM, pioglitazone 1 μM, metformin 3 μM, mAb 1, 10 and 100 μg/ml
# Method: Huh7.5.1 cells have already been described (Zhong et al., Proc Natl Acad Sci USA, 2005, 102(26): 9294-9299). For proliferation arrest and differentiation (Huh7.5.1^dif cells), 2.5.10^4 to 3.10^4 Huh7.5.1 cells were cultured in Dulbecco's Modified Eagle Medium (DMEM) containing 1% dimethylsulfoxide (DMSO).
# Cell culture-derived HCVcc Jc1 (genotype 2a/2a) (Pietschmann et al., Proc Natl Acad Sci USA, 2006, 103(19): 7408-7413) were generated in Huh7.5.1 cells as previously described (Wakita et al., Nat Med., 2005, 11(7): 791-796). HCVcc infectivity was determined by calculating the 50% tissue culture infectious doses (TCID50) in infection experiments as previously described (Lindenbach et al., Science, 2005, 309(5734): 623-626). HCV infection was assessed by qRT-PCR of intracellular HCV RNA (Xiao et al., Gut, 2015, 64(3): 483-494) as well as by immunostaining using an HCV E2-specific AP33 antibody as previously described (Krieger et al., Hepatology. 2010, 51(4): 1144-1157).
# Liver cells were lysed in TRI-reagent (Molecular Research Center), and RNA was purified using Direct-zol RNA MiniPrep (Zymo Research) according to the manufacturer's instructions. RNA quantity and quality were assessed using NanoDrop (ThermoScientific) and Bioanalyzer 2100 ([…]). Gene expression profiling was performed using 250-500 ng total RNA by using nCounter Digital Analyzer system (NanoString).
# Cells incubated with 1% DMSO served as negative control. Three (3) days after treatment, the cells were lysed, total RNA was purified as described above, and analyzed for gene expression and intracellular viral load as described above.
# Prediction of clinical outcome based on the 186-gene signature was performed as previously reported by using the nearest template prediction algorithm, which was implemented in GenePattern (King et al., Gut, 2014, 20. pii: gutjn1-2014-307862. doi: 10.1136/gutjn1-2014-307862; Hoshida et al., PLoS ONE, 2010, 5(11), e15543). A prediction of HCC high-risk or low-risk gene signature was determined using p<0.05 and FDR<0.25. Induction/suppression of each gene set over time according to HCV Jc1 infection and uninfected control was assessed through GSEA and single sample GSEA (ssGSEA) modules implemented in GenePattern as previously described (Subramanian et al., Proc Natl Acad Sci USA, 2005, 102(43): 15545-15550; Barbie et al., Nature, 2009, 462(7269): 108-112). […] Using differentially expressed genes, network analysis was performed using canonical pathways from Ingenuity Knowledge Base repository (Ingenuity Systems Inc.).
# [2] = tested on: rodent models of cirrhosis-driven HCC; conditions: Fuchs et al., Hepatology, 2014; cited from earlier work
# [3] = 186-gene signature, treatment from day 7 post-infection, nCounter assay
SMILES,"NES, HCC high-risk genes (GSEA) [1, 3]","NES, HCC low-risk genes (GSEA) [1, 3]",Reversal of HCC high-risk genes as shown by GSEA (FIG. 2A) [1],186-gene HCC risk signature [2],Liver fibrosis and HCC nodules [2]
C#Cc1cccc(Nc2ncnc3cc(OCCOC)c(OCCOC)cc23)c1 [erlotinib],−1.28,1.26,partially reverses,reversed,reduced liver fibrosis and HCC nodules
CN(C)C(=N)N=C(N)N [metformin],–,–,had no effect,–,–
